Assay results: patent US10874652B2, “Muscle regeneration” (The Research Foundation for The State University of New York, priority 2016, dated 2020)

Assays:
elastase = assay: Elastase activity in cell culture medium (fluorescent substrate cleavage); assay type: biochemical; settings: 100 μM inhibitor, 0.75 U/mL purified elastase pre-incubated 1 hour
Description: The percentage of substrate cleavage (substrate conversion to product) was monitored over time by recording product formation every minute for 30 minutes (30 cycles of instrument recording) using a Pierce EZ-Reader.

dystrophic (mdx4cv) mice [1] = assay: Grip strength, Kondziela's inverted screen test in dystrophic mice; assay type: in vivo, mouse
Description: To test whether elastase inhibition is effective in counteracting the devastating effects of the muscular dystrophy symptoms, we injected dystrophic (mdx4cv) mice with either 100 mg/Kg body weight of Elastatinal dissolved in sterile saline solution (0.9% […]) or with vehicle (sterile saline solution) alone (n=3) twice a week for 6 weeks then measured the grip strength of all 4 limbs using Kondziela's inverted screen test. Each animal was offered three attempts to reach 90 seconds of grip before falling then the best performance was assigned a score (1 to 6 for every 15 seconds spent on the grid, e.g.: 1-14 seconds=score 1, 15-29 seconds=score 2, etc.). Scores were averaged and plotted as mean±the standard error of the mean.
In addition to the above mentioned experiment, Elastatinal was dissolved in a saline solution (0.9% NaCl) to a concentration of 20 mg/mL and then either 200 mg/Kg body weight of Elastatinal or an equal volume of saline solution were injected twice a week for 12 weeks intraperitoneally into dystrophic (mdx4cv) mice. At 8, 10 and 12 weeks of treatment, muscle function (grip strength) of the mice was measured using Kondziella's inverted screen test. A 1-6 score was assigned for every 15 seconds of the total time spent by the mouse on the inverted grid such that a score of 6 indicates at least 90 seconds of latency to fall. […] Error bars are S.E.M. **=p<0.01.

myoblasts = assay: Elastase-induced myoblast cell loss ex vivo; assay type: cell-based; settings: 100 μM inhibitor with 0.75 U/mL elastase, 24 hours, myoblasts on uncoated plates
Description: In order to determine the effect of elastase inhibitors on cultures myoblasts, myoblasts were seeded at the density of 7,000 cells/well in 12 multi-well plates (Corning) and grown for 1 day in growth medium. Twenty-four hours after plating, 0.75 U/mL of purified elastase (Sigma Aldrich) were added to the culture medium in the absence (Ela) or presence of either 100 μM Sivelestat (Ela+Sivelestat) or 100 μM Elastatinal (Ela+Elastatinal) and cultured for additional 24 hours. Quantification of total cell numbers per image was done in triplicates and plotted as average±standard error of the mean. NT=non-treated cultures, that received neither elastase nor elastase inhibitors. **=p<0.01.

dystrophic (mdx4cv) mice [2] = assay: Muscle fibrosis, Picrosirius red staining of gastrocnemius muscle; assay type: in vivo, mouse; settings: 200 mg/kg, 12 weeks, vs saline
Description: (§1) The objective of this experiment was to determine whether elastase inhibitors can reduce inflammation and/or fibrosis. To test this, cross-sections of the gastrocnemius muscle of mice that were treated with either Elastatinal or saline solution were stained with Picrosirius red, or labelled with an anti-CD45 antibody or an anti-laminin antibody. Picrosirius red allows to differentiate between collagen and the rest of the tissue as it stains the collagen a different colour. The anti-CD45 antibody allows the detection of infiltrating leukocytes (which are a marker of inflammation), and the anti-laminin antibody allows the detection of the periphery of myofibres. Both, the amount of fibrosis and the amount of infiltrated CD45+ leukocytes were reduced with Elastatinal treatment, supporting the hypothesis that elastase activity inhibition reduces fibrosis and inflammation.
(§2) For this experiment, the mice were treated with an injection of 200 mg/kg of Elastatinal dissolved in a saline solution (0.9% NaCl) to a concentration of 20 mg/mL. Control mice were treated with an equal volume of saline. […]
The amount of Picrosirius red staining was quantified by selecting re pixels and quantifying the red area using the ImageJ function “Analyze particles”. Averages of 10 technical replicates for each one of 3 biological replicates (N=30) were analysed (FIG. 10 B).

dystrophic (mdx4cv) mice [3] = assay: Muscle fibre size (minimum Feret diameter) in dystrophic mice; assay type: in vivo, mouse; settings: 200 mg/Kg intraperitoneally twice a week, 12 weeks, gastrocnemius muscle, vs saline
Description: To test whether inhibition of elastase activity promoted muscle regeneration in vivo in dystrophic mice, dystrophic (mdx4cv strain) mice were treated with either the elastase inhibitor Elastatinal (dissolved in saline solution) or saline solution for 12 weeks and muscle fibre size was assayed.
Elastatinal (Enzo Life Sciences) was dissolved in a saline solution (0.9% NaCl) to the concentration of 20 mg/mL and then, either 200 mg/Kg body weight of Elastatinal or an equal volume of saline solution were injected twice a week intraperitoneally into the dystrophic (mdx4cv) mice. After 12 weeks of treatment animals were culled and several muscles dissected, embedded in Optimal Cutting Medium (OCT, Fisher) and frozen in liquid nitrogen-cooled isopentane (Sigma) for histopathological analysis.
To measure the extent of muscle regeneration, myofibre size was estimated. Sections of the gastrocnemius muscle of either Elastatinal-treated or saline-treated mice were immunostained to detect laminin which marks the periphery of each muscle fibre and then the programme SMASH′ was used to calculate the minimum Feret diameter as a direct measure of myofibre size.

dystrophic (mdx4cv) mice [4] = assay: Muscle inflammation, CD45+ leukocyte infiltration of gastrocnemius muscle; assay type: in vivo, mouse; settings: 200 mg/kg, 12 weeks, vs saline
Description: as §1, §2
To measure the extent of inflammation, the numbers of infiltrating leucocyte, recognized by immunostaining for CD45 (BD Biosciences) were scored as percentage of area positive to CD45 immunostaining using a written script for Fiji softwate (available at http://fiji.sc) (FIG. 10 D).

| Compound | reduction of elastase activity (elastase) | muscle strength (grip strength) (dystrophic (mdx4cv) mice [1]; 100 mg/Kg twice a week for 6 weeks, vs vehicle) | grip strength (dystrophic (mdx4cv) mice [1]; 200 mg/Kg intraperitoneally twice a week for 12 weeks, measured at 8, 10 and 12 weeks, vs saline) | elastase-induced cell loss (myoblasts) | amount of fibrosis (dystrophic (mdx4cv) mice [2]) | muscle fibre size (minimum Feret diameter) (dystrophic (mdx4cv) mice [3]) | amount of infiltrated CD45+ leukocytes (dystrophic (mdx4cv) mice [4]) |
| --- | --- | --- | --- | --- | --- | --- | --- |
| CC(C)C[C@H](NC(=O)N[C@H](C(=O)N[C@@H](CCC(N)=O)C(=O)N[C@@H](C)C=O)[C@@H]1CCNC(=N)N1)C(=O)O [Elastatinal] | approximately 80% | improved muscle strength | statistically significantly improved grip strength | prevents elastase-induced cell loss | reduced | increasing muscle fibre size | reduced |
| CC(C)(C)C(=O)Oc1ccc(S(=O)(=O)Nc2ccccc2C(=O)NCC(=O)O)cc1 [Sivelestat] | approximately 80% |  |  | prevents elastase-induced cell loss |  |  |  |
